The text below walks through data of patent US20250215029A1 (Recludix Pharma, Inc., priority 2022, published 2025).

In test [1] the target is T1, Recombinant STAT6 protein (STAT6 (W123-T658)) (Homo sapiens, UniProt P42226).
T1 construct: Recombinant STAT6 protein (STAT6 (W123-T658))
T1 sequence (P42226 123-658): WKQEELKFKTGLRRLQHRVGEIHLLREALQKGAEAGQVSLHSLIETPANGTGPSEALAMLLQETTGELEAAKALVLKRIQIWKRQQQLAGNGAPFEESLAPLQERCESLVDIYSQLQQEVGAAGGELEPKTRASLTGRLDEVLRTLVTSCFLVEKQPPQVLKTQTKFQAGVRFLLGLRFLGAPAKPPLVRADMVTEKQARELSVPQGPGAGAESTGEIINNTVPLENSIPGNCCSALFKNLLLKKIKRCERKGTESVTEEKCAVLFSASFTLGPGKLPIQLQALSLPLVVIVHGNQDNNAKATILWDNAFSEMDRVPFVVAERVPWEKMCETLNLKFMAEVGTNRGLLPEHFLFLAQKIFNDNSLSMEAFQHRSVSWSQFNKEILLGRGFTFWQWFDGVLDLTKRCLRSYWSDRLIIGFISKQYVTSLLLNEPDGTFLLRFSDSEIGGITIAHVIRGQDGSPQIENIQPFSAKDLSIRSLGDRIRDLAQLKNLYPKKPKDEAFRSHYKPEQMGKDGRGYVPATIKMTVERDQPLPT
In words: STAT6 Fluorescence Polarization (FP) Assay. In kind it is binding. The settings on record: STAT6 250 nM, probe 5-FAM-Ap[…]-NH2 2 nM, 45-minute incubation; read-out: STAT6 (FP assay IC50). The essentials:
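STAT6 (W123-T658) at 250 nM was mixed with 2 nM 5-FAM-labeled phosphotyrosine peptide probe in HEPES pH 7.4 buffer with NaCl, EDTA, Tween 20 and DTT, then added to serially diluted compounds at 1% DMSO final. Polarization was read after 45 min at room temperature; IC50 came from nonlinear regression of mP versus log concentration.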
For orientation: Fluorescence polarisation rises when a labelled molecule tumbles more slowly, as on binding a larger partner.

Test [2] has as its target T2, Recombinant STAT3 protein (STAT3 (G127-I722)) (Homo sapiens, UniProt P40763).
T2 construct: Recombinant STAT3 protein (STAT3 (G127-I722))
The test can be described thus: STAT3 Fluorescence Polarization (FP) Assay. The class given is binding. The settings on record: STAT3 25 nM, probe 5-FAM-GpYLPQTV-NH2 2 nM, 45-minute incubation; read-out: STAT3 (FP assay IC50). A digest of the protocol:
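Displacement of a 2 nM 5-FAM-labelled pY peptide (GpYLPQTV) from 25 nM recombinant STAT3 (G127-I722) was monitored by fluorescence polarization. Incubation lasted 45 min at room temperature in pH 7.4 HEPES buffer containing 1% DMSO.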

T2 sequence (P40763 127-722): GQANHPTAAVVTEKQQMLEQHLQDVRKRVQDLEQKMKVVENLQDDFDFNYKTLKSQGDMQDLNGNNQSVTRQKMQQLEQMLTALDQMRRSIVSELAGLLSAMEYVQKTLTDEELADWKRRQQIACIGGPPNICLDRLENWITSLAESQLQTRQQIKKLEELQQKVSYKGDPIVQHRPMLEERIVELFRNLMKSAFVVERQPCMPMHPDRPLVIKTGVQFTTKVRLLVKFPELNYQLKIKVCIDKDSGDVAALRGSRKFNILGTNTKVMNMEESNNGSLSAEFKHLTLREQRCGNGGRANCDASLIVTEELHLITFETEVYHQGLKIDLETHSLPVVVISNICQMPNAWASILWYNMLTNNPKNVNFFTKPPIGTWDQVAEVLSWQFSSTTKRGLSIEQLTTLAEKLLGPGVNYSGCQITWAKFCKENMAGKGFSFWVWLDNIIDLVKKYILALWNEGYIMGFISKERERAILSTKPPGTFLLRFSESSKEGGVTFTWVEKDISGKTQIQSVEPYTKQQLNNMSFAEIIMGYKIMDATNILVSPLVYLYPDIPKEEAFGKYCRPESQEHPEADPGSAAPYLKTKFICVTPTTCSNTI

Broadly, the IC50 is the concentration that gives 50% inhibition. Take `O=C(N[C@H]1CCCC[C@H]2CC[C@@H](C(=O)N3CC4(CNS(=O)(=O)C4)C3)N2C1=O)c1cc2cc(C(F)(F)P(=O)(O)O)ccc2s1` [Compound 71, ((2-(((3S,6S,10aS)-3-(6,6-dioxido-6-thia-2,7-diazaspiro[3.4]octane-2-carbonyl)-5-oxodecahydropyrrolo [1,2-a]azocin-6-yl)carbamoyl)benzo[b]thiophen-5-yl)difluoromethyl) phosphonic acid]: the IC50 in test [1] lay within 0.3 to 3 µM; in test [2], 0.1 to 1 µM.

Regarding `O=C(N[C@H]1CCCC[C@H]2CC[C@@H](C(=O)N3CC4(CC(C5CC5)=NO4)C3)N2C1=O)c1cc2cc(C(F)(F)P(=O)(O)O)ccc2s1` [Compound 72, ((2-(((3S,6S,10aS)-3-(7-cyclopropyl-5-oxa-2,6-diazaspiro[3.4]oct-6-ene-2-carbonyl)-5-oxodecahydropyrrolo [1,2-a]azocin-6-yl)carbamoyl)benzo[b]thiophen-5-yl)difluoromethyl) phosphonic acid], the values for the IC50 in test [1] and in test [2] were 0.3 to 3 µM and 0.1 to 1 µM, respectively.

On to `CS(=N)(=O)C1CN(C(=O)[C@@H]2CC[C@@H]3CCCC[C@H](NC(=O)c4cc5cc(C(F)(F)P(=O)(O)O)ccc5s4)C(=O)N32)C1` (stereo partly drawn) [Compound 73, (difluoro(2-(((3S,6S,10aS)-3-(3-(S-methylsulfonimidoyl)azetidine-1-carbonyl)-5-oxodecahydropyrrolo [1,2-a]azocin-6-yl)carbamoyl)benzo[b]thiophen-5-yl)methyl) phosphonic acid], for which the half-inhibitory concentration (IC50) in test [1] lay in the range of 3 to 30 µM; in test [2] it was 0.1 to 1 µM.

On to `O=C(N[C@H]1CCCCC[C@H]2[C@H](O)C[C@@H](C(=O)N3CC(C(=O)N4CCOCC4)C3)N2C1=O)c1cc2cc(C(F)(F)P(=O)(O)O)ccc2s1` [Compound 77, (difluoro(2-(((1R,3S,6S, 11aS)-1-hydroxy-3-(3-(morpholine-4-carbonyl)azetidine-1-carbonyl)-5-oxodecahydro-1H-pyrrolo[1,2-a]azonin-6-yl)carbamoyl)benzo[b]thiophen-5-yl)methyl) phosphonic acid], for which the half-inhibitory concentration (IC50) in test [1] is 3 to 30 µM; in test [2] it was 0.1 to 1 µM.

In the case of `O=C(N[C@H]1CCC[C@H]2CC[C@@H](C(=O)N3CC(c4cccnc4)C3)N2C1=O)c1cc2cc(CP(=O)(O)O)ccc2s1` [Compound 78, ((2-(((3S,6S,9aS)-5-oxo-3-(3-(pyridin-3-yl)azetidine-1-carbonyl)octahydro-1H-pyrrolo[1,2-a]azepin-6-yl)carbamoyl)benzo[b]thiophen-5-yl)methyl) phosphonic acid], the IC50 in test [1] is > 30 µM; in test [2], 0.1 to 1 µM.

Consider `C[C@@H]1[C@@H](n2ccnc2)CN1C(=O)[C@@H]1CC[C@@H]2CCC[C@H](NC(=O)c3cc4cc(C(F)(F)P(=O)(O)O)ccc4s3)C(=O)N21` [Compound 81, ((2-(((3S,6S,9aS)-3-((2R,3S)-3-(1H-imidazol-1-yl)-2-methylazetidine-1-carbonyl)-5-oxooctahydro-1H-pyrrolo[1,2-a]azepin-6-yl)carbamoyl)benzo[b]thiophen-5-yl)difluoromethyl) phosphonic acid], for which the IC50 in test [1] is 0.3 to 3 µM; in test [2], < 0.1 µM.

With `O=C(N[C@H]1CCCC[C@H]2CC[C@@H](C(=O)N3CC[C@@H](c4ccccc4)C3)N2C1=O)c1cc2cc(C(F)(F)P(=O)(O)O)ccc2s1` [Compound 82, (difluoro(2-(((3S,6S,10aS)-5-oxo-3-((S)-3-phenylpyrrolidine-1-carbonyl)decahydropyrrolo [1,2-a]azocin-6-yl)carbamoyl)benzo[b]thiophen-5-yl)methyl) phosphonic acid], the IC50 in test [1] is ≤ 0.3 µM; in test [2] it was 0.1 to 1 µM.

Take `C[C@]1(NC(=O)c2cc3cc(C(F)(F)P(=O)(O)O)ccc3s2)CCCC[C@H]2CC[C@@H](C(=O)N3CC(c4ccccn4)C3)N2C1=O` [Compound 85, (difluoro(2-(((3S,6S,10aS)-6-methyl-5-oxo-3-(3-(pyridin-2-yl)azetidine-1-carbonyl)decahydropyrrolo [1,2-a]azocin-6-yl)carbamoyl)benzo[b]thiophen-5-yl)methyl) phosphonic acid]: the IC50 in test [1] is 3 to 30 µM; in test [2], < 0.1 µM.
